Experimental data: US20220257514A1, “MONOSACCHARIDE-TAGGED NANO-LIPOSOME DRUG DELIVERY SYSTEM, THE MANUFACTURE AND USE FOR DRUG TARGETING DELIVERY THEREOF” (National Yang Ming Chiao Tung University, priority 2019, published 2022)

Tests used:
L929 fibroblasts = assay: Annexin V/PI apoptosis, normal cell line; format: cell-based; conditions: L929 fibroblasts cultured under attached conditions
A549 CSC = conditions: stated as known; cited from earlier work

ceramide [free ceramide]
apoptosis in normal cells (L929 fibroblasts): neither free ceramide nor G5C3 cause significant apoptosis
resistance of A549 CSC (A549 CSC): resistant to free ceramide
